The source of these data is patent US20180110777A1, “METHOD FOR REGULATION OF TELOMERE LENGTH” (The Johns Hopkins University, priority 2015, published 2018).

The subject of assay [1] is ATR kinase substrate Chk1. Briefly: Western blot of ATR kinase substrate Chk1 phosphorylation. Format: cell-based, mouse. As to conditions: cells pretreated, then exposed to camptothecin (CPT). From the text:
To probe the role of ATM, the ADDIT assay was used in cells treated with the ATM specific inhibitor KU55933 (as described in Hickson et al., 2004, Cancer Research 64, 9152-9159) or with siRNA to ATM. To confirm the inhibition of ATM, the phosphorylation level was examined of the ATM substrate Kap1 and, as a control, an ATR kinase substrate Chk1 by western blot. Cultured cells were pretreated with KU55933, siA™ or DMSO control and then exposed to camptothecin (CPT), a DNA damaging agent.
To detect phospho-proteins, 1× lysis buffer made of final concentration of 1×RIPA™ (Cell Signaling, #98016S), 1× protease inhibitor cocktail, 1× PhosSTOP™ (Roche, 4906845001) was added directly to cells on the dish after washing with PBS. Protein concentration was measured with a BCA protein assay kit (Thermo, #23227). Typically 10 μg of protein from each sample was applied to SDS-PAGE gels (Biorad, #456-1084) and transferred to nitrocellulose membranes in transfer buffer. […] Band intensities were quantified using the Odyssey™ software (LI-COR) and normalized to Actin levels. […]

The subject of the next assay is PARP1-4. The settings on record: in vitro assays; cited from earlier work.

Regarding `O=c1cc(-c2cccc3c2Sc2ccccc2S3)oc(N2CCOCC2)c1` [KU55933], the Chk1-S345 phosphorylation entry in assay [1] is listed as “not Chk1 phosphorylation”. As to `O=C(c1cc(Cc2n[nH]c(=O)c3ccccc23)ccc1F)N1CCN(C(=O)C2CC2)CC1` [Olaparib], the “specificity to PARP1-4” value in the assay on PARP1-4 is given as “highly specific to PARP1-4”.
